Laboratory results from US7846959B2, “Raf modulators and methods of use” (Exelixis, Inc., priority 2004, dated 2010).

Assays:
c-Raf = c-Raf (Homo sapiens, UniProt P04049); experiment: Luciferase-coupled chemiluminescence kinase assay (ATP consumption), c-Raf; assay type: biochemical; settings: read-out: cRaf-1 (inhibition indicated as IC50)
Method in brief: (§1)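 ATP depletion, limited to 25-60%, read by luciferase-luciferin chemiluminescence gives IC50 values. Before the 3 hr ambient-temperature kinase reaction with ATP, compound and […] enzyme were preincubated 30 minutes at room temperature in Tris pH 7.5 buffer with MgCl2, TX-100 and DTT.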

B-Raf = B-Raf (Homo sapiens, UniProt P15056); experiment: Luciferase-coupled chemiluminescence kinase assay (ATP consumption), B-Raf; assay type: biochemical; settings: read-out: bRaf (inhibition indicated as IC50)
Sequence of B-Raf (P15056 whole entry): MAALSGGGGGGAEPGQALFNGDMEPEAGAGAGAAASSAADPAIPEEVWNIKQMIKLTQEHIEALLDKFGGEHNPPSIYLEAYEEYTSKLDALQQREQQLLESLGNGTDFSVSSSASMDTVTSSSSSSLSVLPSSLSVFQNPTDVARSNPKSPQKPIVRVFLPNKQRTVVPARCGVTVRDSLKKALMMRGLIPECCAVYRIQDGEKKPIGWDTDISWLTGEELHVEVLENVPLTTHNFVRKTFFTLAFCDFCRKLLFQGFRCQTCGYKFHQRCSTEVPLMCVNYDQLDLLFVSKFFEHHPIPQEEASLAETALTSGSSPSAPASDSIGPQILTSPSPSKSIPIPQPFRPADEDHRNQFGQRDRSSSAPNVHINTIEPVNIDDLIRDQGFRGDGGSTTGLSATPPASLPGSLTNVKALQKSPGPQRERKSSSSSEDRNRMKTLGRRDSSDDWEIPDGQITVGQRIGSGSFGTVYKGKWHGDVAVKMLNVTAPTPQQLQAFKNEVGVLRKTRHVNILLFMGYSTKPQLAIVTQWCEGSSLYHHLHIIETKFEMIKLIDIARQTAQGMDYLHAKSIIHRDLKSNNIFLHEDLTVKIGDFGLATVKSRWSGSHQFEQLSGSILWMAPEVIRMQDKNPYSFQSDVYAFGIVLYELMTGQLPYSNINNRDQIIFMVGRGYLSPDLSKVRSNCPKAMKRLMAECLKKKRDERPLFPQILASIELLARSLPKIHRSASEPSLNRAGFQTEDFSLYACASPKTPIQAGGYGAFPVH
Method in brief: as §1

Sequence of c-Raf (P04049 whole entry): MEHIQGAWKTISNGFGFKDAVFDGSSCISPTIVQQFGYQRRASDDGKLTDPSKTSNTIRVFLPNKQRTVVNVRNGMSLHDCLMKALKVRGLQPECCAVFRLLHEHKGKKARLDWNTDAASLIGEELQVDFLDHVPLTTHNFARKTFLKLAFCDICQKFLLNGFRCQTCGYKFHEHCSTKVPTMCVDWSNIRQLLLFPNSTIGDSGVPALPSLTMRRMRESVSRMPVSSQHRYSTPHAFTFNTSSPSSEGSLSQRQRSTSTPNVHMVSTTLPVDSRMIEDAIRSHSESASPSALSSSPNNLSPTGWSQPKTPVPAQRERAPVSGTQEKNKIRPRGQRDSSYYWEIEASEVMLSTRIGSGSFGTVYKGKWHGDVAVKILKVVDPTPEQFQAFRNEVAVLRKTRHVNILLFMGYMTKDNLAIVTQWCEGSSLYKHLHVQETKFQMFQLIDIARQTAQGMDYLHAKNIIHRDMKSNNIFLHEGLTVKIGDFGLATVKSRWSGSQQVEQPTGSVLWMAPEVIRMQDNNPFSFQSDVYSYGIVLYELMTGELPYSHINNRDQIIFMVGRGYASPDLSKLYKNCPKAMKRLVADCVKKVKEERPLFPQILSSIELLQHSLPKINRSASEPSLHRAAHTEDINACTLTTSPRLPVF

Row | SMILES | IC50 (c-Raf) | IC50 (B-Raf)
1 | CN1CCC(COC(=O)Nc2nc3cc(C4(O)c5ccccc5C(=O)N4c4cccc(Cl)c4F)ccc3[nH]2)CC1 (stereo not drawn) [Entry 316, (1-methylpiperidin-4-yl)methyl {5-[2-(3-chloro-2-fluorophenyl)-1-hydroxy-3-oxo-2,3-dihydro-1H-isoindol-1-yl]-1H-benzimidazol-2-yl}carbamate] | < 0.1 µM | < 0.1 µM
2 | CN1CCC(CCOC(=O)Nc2nc3cc(C4(O)c5ccccc5C(=O)N4c4cccc(Cl)c4F)ccc3[nH]2)CC1 (stereo not drawn) [Entry 317, 2-(1-methylpiperidin-4-yl)ethyl {5-[2-(3-chloro-2-fluorophenyl)-1-hydroxy-3-oxo-2,3-dihydro-1H-isoindol-1-yl]-1H-benzimidazol-2-yl}carbamate] | < 0.1 µM | < 0.1 µM
3 | COC(=O)C(=O)Nc1nc2ccc(C3(O)c4ccccc4C(=O)N3c3cccc(Cl)c3F)cc2[nH]1 (stereo not drawn) [Entry 318, methyl ({6-[2-(3-chloro-2-fluorophenyl)-1-hydroxy-3-oxo-2,3-dihydro-1H-isoindol-1-yl]-1H-benzimidazol-2-yl}amino)(oxo)acetate] | 1 to 10 µM | 1 to 10 µM
4 | O=C(CCCN1CCCCC1)Nc1nc2cc(C3(O)c4ccccc4C(=O)N3c3cccc(Oc4ccccc4)c3)ccc2[nH]1 (stereo not drawn) [Entry 319, N-(5-{1-hydroxy-3-oxo-2-[3-(phenyloxy)phenyl]-2,3-dihydro-1H-isoindol-1-yl}-1H-benzimidazol-2-yl)-4-piperidin-1-ylbutanamide] | < 0.1 µM | < 0.1 µM
5 | COC(=O)Nc1nc2ccc(C3(C)c4ccccc4C(=O)N3c3cccc(Br)c3)cc2[nH]1 (stereo not drawn) [Entry 320, methyl {6-[2-(3-bromophenyl)-1-methyl-3-oxo-2,3-dihydro-1H-isoindol-1-yl]-1H-benzimidazol-2-yl}carbamate] | < 0.1 µM | < 0.1 µM
6 | CCN(CC)CC#CCOC(=O)Nc1nc2ccc(C3(O)c4ccccc4C(=O)N3c3cccc(Cl)c3F)cc2[nH]1 (stereo not drawn) [Entry 321, 4-(diethylamino)but-2-yn-1-yl {6-[2-(3-chloro-2-fluorophenyl)-1-hydroxy-3-oxo-2,3-dihydro-1H-isoindol-1-yl]-1H-benzimidazol-2-yl}carbamate] | < 0.1 µM | < 0.1 µM
7 | COC(=O)Nc1nc2cc(C3(O)c4ccccc4C(=O)N3c3c(F)ccc(Cl)c3F)ccc2[nH]1 (stereo not drawn) [Entry 322, methyl {5-[2-(3-chloro-2,6-difluorophenyl)-1-hydroxy-3-oxo-2,3-dihydro-1H-isoindol-1-yl]-1H-benzimidazol-2-yl}carbamate] | < 0.1 µM | < 0.1 µM
8 | O=C(Nc1nc2ccc(C3(O)c4ccccc4C(=O)N3c3cccc(Cl)c3F)cc2[nH]1)OCCN1CCCC1=O (stereo not drawn) [Entry 323, 2-(2-oxopyrrolidin-1-yl)ethyl {6-[2-(3-chloro-2-fluorophenyl)-1-hydroxy-3-oxo-2,3-dihydro-1H-isoindol-1-yl]-1H-benzimidazol-2-yl}carbamate] | < 0.1 µM | < 0.1 µM
9 | O=C(Nc1nc2ccc(C3(O)c4ccccc4C(=O)N3c3cccc(Cl)c3F)cc2[nH]1)OCCN1C(=O)CCC1=O (stereo not drawn) [Entry 324, 2-(2,5-dioxopyrrolidin-1-yl)ethyl {6-[2-(3-chloro-2-fluorophenyl)-1-hydroxy-3-oxo-2,3-dihydro-1H-isoindol-1-yl]-1H-benzimidazol-2-yl}carbamate] | < 0.1 µM | < 0.1 µM
10 | O=C(Nc1nc2cc(C3(O)c4ccccc4C(=O)N3c3cccc(Cl)c3F)ccc2[nH]1)OC1CC(F)(F)C1(F)F (stereo not drawn) [Entry 325, 2,2,3,3-tetrafluorocyclobutyl {5-[2-(3-chloro-2-fluorophenyl)-1-hydroxy-3-oxo-2,3-dihydro-1H-isoindol-1-yl]-1H-benzimidazol-2-yl}carbamate] | < 0.1 µM | < 0.1 µM
11 | CC(=O)N1CCC(C(=O)Nc2nc3cc(C4(O)c5ccccc5C(=O)N4c4cccc(Cl)c4F)ccc3[nH]2)CC1 (stereo not drawn) [Entry 326, 1-acetyl-N-{5-[2-(3-chloro-2-fluorophenyl)-1-hydroxy-3-oxo-2,3-dihydro-1H-isoindol-1-yl]-1H-benzimidazol-2-yl}piperidine-4-carboxamide] | < 0.1 µM | < 0.1 µM
12 | O=C(Nc1nc2cc(C3(O)c4ccccc4C(=O)N3c3cccc(Cl)c3F)ccc2[nH]1)C1CCC1 (stereo not drawn) [Entry 327, N-{5-[2-(3-chloro-2-fluorophenyl)-1-hydroxy-3-oxo-2,3-dihydro-1H-isoindol-1-yl]-1H-benzimidazol-2-yl}cyclobutanecarboxamide] | < 0.1 µM | < 0.1 µM
13 | CCN(c1ccccc1)c1cccc(N2C(=O)c3ccccc3C2(O)c2ccc3[nH]c(NC(=O)OC)nc3c2)c1 (stereo not drawn) [Entry 328, methyl [5-(2-{3-[ethyl(phenyl)amino]phenyl}-1-hydroxy-3-oxo-2,3-dihydro-1H-isoindol-1-yl)-1H-benzimidazol-2-yl]carbamate] | 0.1 to 1 µM | 0.1 to 1 µM
14 | O=C(Nc1nc2ccc(C3(O)c4ccccc4C(=O)N3c3cccc(Cl)c3F)cc2[nH]1)C1CC1(F)F (stereo not drawn) [Entry 329, N-{6-[2-(3-chloro-2-fluorophenyl)-1-hydroxy-3-oxo-2,3-dihydro-1H-isoindol-1-yl]-1H-benzimidazol-2-yl}-2,2-difluorocyclopropanecarboxamide] | < 0.1 µM | < 0.1 µM
15 | O=C(Nc1nc2ccc(C3(O)c4ccccc4C(=O)N3c3cccc(Cl)c3F)cc2[nH]1)OC1CCC1 (stereo not drawn) [Entry 330, cyclobutyl {6-[2-(3-chloro-2-fluorophenyl)-1-hydroxy-3-oxo-2,3-dihydro-1H-isoindol-1-yl]-1H-benzimidazol-2-yl}carbamate] | < 0.1 µM | < 0.1 µM
16 | O=C(Nc1nc2ccc(C3(O)c4ccccc4C(=O)N3c3cccc(Cl)c3F)cc2[nH]1)OCC(F)F (stereo not drawn) [Entry 331, 2,2-difluoroethyl {6-[2-(3-chloro-2-fluorophenyl)-1-hydroxy-3-oxo-2,3-dihydro-1H-isoindol-1-yl]-1H-benzimidazol-2-yl}carbamate] | < 0.1 µM | < 0.1 µM
17 | O=C1c2ccccc2C(O)(c2ccc3[nH]c(Nc4ccccn4)nc3c2)N1c1cccc(Cl)c1F (stereo not drawn) [Entry 332, 2-(3-chloro-2-fluorophenyl)-3-hydroxy-3-[2-(pyridin-2-ylamino)-1H-benzimidazol-5-yl]-2,3-dihydro-1H-isoindol-1-one] | < 0.1 µM | < 0.1 µM
18 | CC(C)OC(=O)Nc1nc2ccc(C3(O)c4ccccc4C(=O)N3c3cccc(Cl)c3F)cc2[nH]1 (stereo not drawn) [Entry 333, 1-methylethyl {6-[2-(3-chloro-2-fluorophenyl)-1-hydroxy-3-oxo-2,3-dihydro-1H-isoindol-1-yl]-1H-benzimidazol-2-yl}carbamate] | < 0.1 µM | < 0.1 µM
19 | O=C(Nc1nc2ccc(C3(O)c4ccccc4C(=O)N3c3cccc(Cl)c3F)cc2[nH]1)OCC1CC1 (stereo not drawn) [Entry 334, cyclopropylmethyl {6-[2-(3-chloro-2-fluorophenyl)-1-hydroxy-3-oxo-2,3-dihydro-1H-isoindol-1-yl]-1H-benzimidazole-2-yl}carbamate] | < 0.1 µM | < 0.1 µM
20 | O=C(Nc1nc2cc(C3(O)c4ccccc4C(=O)N3c3cccc(Cl)c3F)ccc2[nH]1)C1CC1 (stereo not drawn) [Entry 335, N-{5-[2-(3-chloro-2-fluorophenyl)-1-hydroxy-3-oxo-2,3-dihydro-1H-isoindol-1-yl]-1H-benzimidazol-2-yl}cyclopropanecarboxamide] | < 0.1 µM | < 0.1 µM
21 | COCCOC(=O)Nc1nc2cc(C3(O)c4ccccc4C(=O)N3c3cccc(Cl)c3F)ccc2[nH]1 (stereo not drawn) [Entry 336, 2-(methyloxy)ethyl {5-[2-(3-chloro-2-fluorophenyl)-1-hydroxy-3-oxo-2,3-dihydro-1H-isoindol-1-yl]-1H-benzimidazol-2-yl}carbamate] | < 0.1 µM | < 0.1 µM
22 | O=C(Nc1nc2ccc(C3(O)c4ccccc4C(=O)N3c3cccc(Cl)c3F)cc2[nH]1)OCC1CCCO1 (stereo not drawn) [Entry 337, tetrahydrofuran-2-ylmethyl {6-[2-(3-chloro-2-fluorophenyl)-1-hydroxy-3-oxo-2,3-dihydro-1H-isoindol-1-yl]-1H-benzimidazol-2-yl}carbamate] | < 0.1 µM | < 0.1 µM
23 | O=C(Cc1cccs1)Nc1nc2cc(C3(O)c4ccccc4C(=O)N3c3cccc(Cl)c3F)ccc2[nH]1 (stereo not drawn) [Entry 338, N-{5-[2-(3-chloro-2-fluorophenyl)-1-hydroxy-3-oxo-2,3-dihydro-1H-isoindol-1-yl]-1H-benzimidazol-2-yl}-2-(2-thienyl)acetamide] | < 0.1 µM | < 0.1 µM
24 | COC(=O)Nc1nc2ccc(C3(O)c4c(F)ccc(F)c4C(=O)N3c3cccc(Cl)c3F)cc2[nH]1 (stereo not drawn) [Entry 339, methyl {6-[2-(3-chloro-2-fluorophenyl)-4,7-difluoro-1-hydroxy-3-oxo-2,3-dihydro-1H-isoindol-1-yl]-1H-benzimidazol-2-yl}carbamate] | < 0.1 µM | < 0.1 µM
25 | CCOC(=O)Nc1nc2ccc(C3(O)c4ccccc4C(=O)N3c3cccc(Cl)c3F)cc2[nH]1 (stereo not drawn) [Entry 340, ethyl {6-[2-(3-chloro-2-fluorophenyl)-1-hydroxy-3-oxo-2,3-dihydro-1H-isoindol-1-yl]-1H-benzimidazol-2-yl}carbamate] | < 0.1 µM | < 0.1 µM
26 | O=C(Nc1nc2ccc(C3(O)c4ccccc4C(=O)N3c3cccc(Cl)c3F)cc2[nH]1)OCCF (stereo not drawn) [Entry 341, 2-fluoroethyl {6-[2-(3-chloro-2-fluorophenyl)-1-hydroxy-3-oxo-2,3-dihydro-1H-isoindol-1-yl]-1H-benzimidazol-2-yl}carbamate] | < 0.1 µM | < 0.1 µM
27 | COC(=O)Nc1nc2cc(C3(O)c4ccccc4C(=O)N3c3ccccc3Oc3ccccc3)ccc2[nH]1 (stereo not drawn) [Entry 342, methyl (5-{1-hydroxy-3-oxo-2-[2-(phenyloxy)phenyl]-2,3-dihydro-1H-isoindol-1-yl}-1H-benzimidazol-2-yl)carbamate] | 0.1 to 1 µM | 0.1 to 1 µM
